Experimental data taken from patent US20060008512A1, “Composition and methods for improved animal performance” (priority 2004, published 2006).
Like-named read-outs stand apart in the source and are kept apart here.

Tested on: Hy-Line W-36 White Leghorn hens
Details: for Egg Shell, % (washed, dried): 10 mg/kg of feed, 6 & 10 d rooms combined
Experimental: Experiment 2. […] The photoperiod was 17 hours of light per day (0330 hours to 2030 hours).
The objective was to use T4 to humanely induce molting in hens that are continuously provided with ad libitum access to palatable feed meeting or exceeding all National Research Council (1994) standards. Developing a fully efficacious yet affordable molting protocol was predicated on determining the minimum effective level for T4 supplementation. Factors that potentially may affect the required level of T4 supplementation include: (1) uncertainty regarding the efficiency of T4 absorption by the gastrointestinal tract, (2) the possibility that continuous dietary ingestion of T4 could trigger substantially different biological responses when compared single daily injections, and (3) the likelihood that daily T4 intake would diminish in parallel with molt-related reductions in feed intake associated with cessation in egg production. A spontaneous and voluntary loss of appetite (anorexia) commonly accompanies seasonal molting and broodiness in a variety of avian species (Berry, 2003; Webster, 2003). Accordingly, the responses of hens to diets containing 10, 20, and 40 mg T4/kg, to bracket the anticipated range of T4 needed to cause an effective molt, were determined.

[1] = 10 mg/kg of feed 6 d from day 5, Day 7
[2] = 10 mg/kg of feed 6 d from day 5, Day 10
[3] = 10 mg/kg of feed 6 d from day 5, Day 14
[4] = 10 mg/kg of feed 6 d from day 5, Day 30
[5] = 10 mg/kg of feed 10 d from day 5, Day 7
[6] = 10 mg/kg of feed 10 d from day 5, Day 10
[7] = 10 mg/kg of feed 10 d from day 5, Day 14
[8] = 10 mg/kg of feed 10 d from day 5, Day 30
[9] = 20 mg/kg of feed 6 d from day 5, Day 7
[10] = 20 mg/kg of feed 6 d from day 5, Day 10
[11] = 20 mg/kg of feed 6 d from day 5, Day 14
[12] = 20 mg/kg of feed 6 d from day 5, Day 30

In the case of `N[C@@H](Cc1cc(I)c(Oc2cc(I)c(O)c(I)c2)c(I)c1)C(=O)O` [L-thyroxine, 3,5,3′,5′-tetraiodo-L-thyronine], the “Onset of molt after T4 feeding was initiated” value (10 mg T4/kg, 10 days on test diets, half of the hens) is reported as 11 days, the “Body weight (BW)” value (10 mg/kg of feed 6 d from day 5, Day 1) is reported as 1501 g and the “Body weight (BW)” value [1] is reported as 1377 g. The “Body weight change from day 1 (% BWC)” value [1] was −8.3%, the “Body weight (BW)” value [2] was 1293 g and the “Body weight change from day 1 (% BWC)” value [2] was −13.9%. The “Body weight (BW)” value [3] was 1424 g, the “Body weight change from day 1 (% BWC)” value [3] was −5.1% and the “Body weight (BW)” value [4] was 1483 g. The “Body weight change from day 1 (% BWC)” value [4] was −1.2%, the Hen-day egg production (10 mg/kg of feed 6 d from day 5, day 4) was 75% and the Hen-day egg production (10 mg/kg of feed 6 d from day 5, day 6) was 58%. The Hen-day egg production (10 mg/kg of feed 6 d from day 5, day 8) was 25%, the Hen-day egg production (10 mg/kg of feed 6 d from day 5, day 10) was 8% and the Hen-day egg production (10 mg/kg of feed 6 d from day 5, day 12) was 17%. For the same compound, the Hen-day egg production (10 mg/kg of feed 6 d from day 5, day 14) was 0%, the Hen-day egg production (10 mg/kg of feed 6 d from day 5, day 16) was 33% and the Hen-day egg production (10 mg/kg of feed 6 d from day 5, day 18) was 25%. For the same compound, the Hen-day egg production (10 mg/kg of feed 6 d from day 5, day 20) was 58%, the Hen-day egg production (10 mg/kg of feed 6 d from day 5, day 22) was 75% and the Hen-day egg production (10 mg/kg of feed 6 d from day 5, day 24) was 83%. The Hen-day egg production (10 mg/kg of feed 6 d from day 5, day 26) was 42%, the Hen-day egg production (10 mg/kg of feed 6 d from day 5, day 28) was 83% and the Hen-day egg production (10 mg/kg of feed 6 d from day 5, day 30) was 75%. The “Body weight (BW)” value (10 mg/kg of feed 10 d from day 5, Day 1) was 1477 g, the “Body weight (BW)” value [5] was 1372 g and the “Body weight change from day 1 (% BWC)” value [5] was −7.1%. The “Body weight (BW)” value [6] was 1335 g, the “Body weight change from day 1 (% BWC)” value [6] was −9.6% and the “Body weight (BW)” value [7] was 1314 g. The “Body weight change from day 1 (% BWC)” value [7] was −11.0%, the “Body weight (BW)” value [8] was 1400 g and the “Body weight change from day 1 (% BWC)” value [8] was −5.2%. The Hen-day egg production (10 mg/kg of feed 10 d from day 5, day 4) was 58%, the Hen-day egg production (10 mg/kg of feed 10 d from day 5, day 6) was 50% and the Hen-day egg production (10 mg/kg of feed 10 d from day 5, day 8) was 42%. The Hen-day egg production (10 mg/kg of feed 10 d from day 5, day 10) was 17%, the Hen-day egg production (10 mg/kg of feed 10 d from day 5, day 12) was 17% and the Hen-day egg production (10 mg/kg of feed 10 d from day 5, day 14) was 17%. The Hen-day egg production (10 mg/kg of feed 10 d from day 5, day 16) was 17%, the Hen-day egg production (10 mg/kg of feed 10 d from day 5, day 18) was 25% and the Hen-day egg production (10 mg/kg of feed 10 d from day 5, day 22) was 33%. The Hen-day egg production (10 mg/kg of feed 10 d from day 5, day 24) was 50%, the Hen-day egg production (10 mg/kg of feed 10 d from day 5, day 26) was 25% and the Hen-day egg production (10 mg/kg of feed 10 d from day 5, day 28) was 25%. The Hen-day egg production (10 mg/kg of feed 10 d from day 5, day 30) was 33%, the “Egg Shell, % (washed, dried)” value (Days 2 to 4) was 7.93 (n = 6) % and the “Egg Shell, % (washed, dried)” value (Days 5 to 6) was 7.39 (n = 9) %. The “Egg Shell, % (washed, dried)” value (Days 7 to 8) was 6.63 (n = 8) %, the “Body weight (BW)” value (20 mg/kg of feed 6 d from day 5, Day 1) was 1582 g and the “Body weight (BW)” value [9] was 1434 g. For the same compound, the “Body weight change from day 1 (% BWC)” value [9] was −9.4%, the “Body weight (BW)” value [10] was 1373 g and the “Body weight change from day 1 (% BWC)” value [10] was −13.2%. For the same compound, the “Body weight (BW)” value [11] was 1491 g, the “Body weight change from day 1 (% BWC)” value [11] was −3.9% and the “Body weight (BW)” value [12] was 1521 g. For the same compound, the “Body weight change from day 1 (% BWC)” value [12] was −3.9%, the Hen-day egg production (20 mg/kg of feed 6 d from day 5, day 4) was 94% and the Hen-day egg production (20 mg/kg of feed 6 d from day 5, day 6) was 69%. It also gave a Hen-day egg production (20 mg/kg of feed 6 d from day 5, day 8) of 17%, a Hen-day egg production (20 mg/kg of feed 6 d from day 5, day 10) of 0% and a Hen-day egg production (20 mg/kg of feed 6 d from day 5, day 12) of 17%. The Hen-day egg production (20 mg/kg of feed 6 d from day 5, day 14) was 14%, the Hen-day egg production (20 mg/kg of feed 6 d from day 5, day 16) was 33% and the Hen-day egg production (20 mg/kg of feed 6 d from day 5, day 18) was 39%. It also gave a Hen-day egg production (20 mg/kg of feed 6 d from day 5, day 20) of 47%, a Hen-day egg production (20 mg/kg of feed 6 d from day 5, day 22) of 64% and a Hen-day egg production (20 mg/kg of feed 6 d from day 5, day 24) of 64%. It also gave a Hen-day egg production (20 mg/kg of feed 6 d from day 5, day 26) of 78%.
